Measurements taken from patent publication US8975417B2, “Pyrazolopyrrolidine derivatives and their use in the treatment of disease” (Novartis AG, priority 2013, dated 2015).

System: MV-4-11 cells
Assay: Cell growth inhibition assay (CellTiter-Glo), MV-4-11
Format: cell-based
Conditions: Homo sapiens, MV4-11, read-out: MV-4-11 TGI
Procedure, shortened: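 CTG luminescence (cellular ATP) after compound treatment; values background- and day 0-corrected, vehicle (0.1% DMSO) = 100%, medium only = −100%. Dose range: 3-fold dilutions from 10 μM. IC50/TGI by 4-parameter fit.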

Structure (SMILES) | IC (total growth inhibition)
Cc1cc(N2C(=O)c3c(c(CO)nn3C3CC3)C2c2ccc(Cl)cc2)cn2c(C)nnc12 (centres unmarked) [Example 131, 4-(4-chlorophenyl)-1-cyclopropyl-5-(3,8-dimethyl-[1,2,4]triazolo[4,3-a]pyridin-6-yl)-3-(hydroxymethyl)-4,5-dihydropyrrolo[3,4-c]pyrazol-6(1H)-one] | 0.0405 µM
CCc1nn(C2CC2)c2c1[C@@H](c1ccc(Cl)cc1)N(c1cc(C)c3nnc(C)n3c1)C2=O [Example 107, (R)-4-(4-chlorophenyl)-1-cyclopropyl-5-(3,8-dimethyl-[1,2,4]triazolo[4,3-a]pyridin-6-yl)-3-ethyl-4,5-dihydropyrrolo[3,4-c]pyrazol-6(1H)-one] | 0.0113 µM
CCc1c2c(nn1CCO)C(=O)N(c1cc(C)c3onc(C)c3c1)C2c1ccc(Cl)cc1 (centres unmarked) [Example 80, 4-(4-chlorophenyl)-5-(3,7-dimethylbenzo[d]isoxazol-5-yl)-3-ethyl-2-(2-hydroxyethyl)-4,5-dihydropyrrolo[3,4-c]pyrazol-6(2H)-one] | 0.472 µM
CCc1nn(C2CC2)c2c1C(c1ccc(Cl)cc1)N(c1cc(C)c3nnc(C)n3c1)C2=O (centres unmarked) [Example 70, 4-(4-chlorophenyl)-1-cyclopropyl-5-(3,8-dimethyl-[1,2,4]triazolo[4,3-a]pyridin-6-yl)-3-ethyl-4,5-dihydropyrrolo[3,4-c]pyrazol-6(1H)-one] | 0.0131 µM
Cc1nn(C(C)C)c2c1[C@H](c1ccc(Cl)cc1)N(c1cc(C)c(=O)n(C)c1)C2=O [Example 103, (S)-4-(4-chlorophenyl)-5-(1,5-dimethyl-6-oxo-1,6-dihydropyridin-3-yl)-1-isopropyl-3-methyl-4,5-dihydropyrrolo[3,4-c]pyrazol-6(1H)-one] | 6.54 µM
Cc1nn(-c2cncn2C)c2c1C(c1ccc(Cl)cc1)N(c1cc(C)c(=O)n(C)c1)C2=O (centres unmarked) [Example 83, 4-(4-chlorophenyl)-5-(1,5-dimethyl-6-oxo-1,6-dihydropyridin-3-yl)-3-methyl-1-(1-methyl-1H-imidazol-5-yl)-4,5-dihydropyrrolo[3,4-c]pyrazol-6(1H)-one] | 0.145 µM
Cn1cc(N2C(=O)c3c(c(C(F)(F)F)nn3C3CC3)C2c2ccc(Cl)cc2)cc(Cl)c1=O (centres unmarked) [Example 44, 5-(5-chloro-1-methyl-6-oxo-1,6-dihydropyridin-3-yl)-4-(4-chlorophenyl)-1-cyclopropyl-3-(trifluoromethyl)-4,5-dihydropyrrolo[3,4-c]pyrazol-6(1H)-one] | 0.329 µM
COc1ncccc1-n1nc(C)c2c1C(=O)N(c1cc(C)c3nnn(C)c3n1)C2c1ccc(Cl)cc1 (centres unmarked) [Example 109, 4-(4-chlorophenyl)-5-(3,7-dimethyl-3H-[1,2,3]triazolo[4,5-b]pyridin-5-yl)-1-(2-methoxypyridin-3-yl)-3-methyl-4,5-dihydropyrrolo[3,4-c]pyrazol-6(1H)-one] | 0.0381 µM
Cc1nn(C[C@H](O)C(F)(F)F)c2c1[C@@H](c1ccc(Cl)cc1)N(c1cc(C)c3nnc(C)n3c1)C2=O [Example 167, (R)-4-(4-chlorophenyl)-5-(3,8-dimethyl-[1,2,4]triazolo[4,3-a]pyridin-6-yl)-3-methyl-1-((S)-3,3,3-trifluoro-2-hydroxypropyl)-4,5-dihydropyrrolo[3,4-c]pyrazol-6(1H)-one] | 0.0433 µM
Cc1cc(N2C(=O)c3nn(C4CC4)c(C)c3C2c2ccc(Cl)cc2)cn2c(C)nnc12 (centres unmarked) [Example 93, 4-(4-chlorophenyl)-2-cyclopropyl-5-(3,8-dimethyl-[1,2,4]triazolo[4,3-a]pyridin-6-yl)-3-methyl-4,5-dihydropyrrolo[3,4-c]pyrazol-6(2H)-one] | 0.0226 µM
COc1ncccc1-n1nc(C)c2c1C(=O)N(c1cc(C)c(=O)n(C)c1)[C@H]2c1ccc(Cl)cc1 [Example 127, (S)-4-(4-chlorophenyl)-5-(1,5-dimethyl-6-oxo-1,6-dihydropyridin-3-yl)-1-(2-methoxypyridin-3-yl)-3-methyl-4,5-dihydropyrrolo[3,4-c]pyrazol-6(1H)-one] | 4.49 µM
